Earlier results as cited in patent publication US10227355B2, “Quinoline derivatives and preparation thereof” (COUNCIL OF SCIENTIFIC AND INDUSTRIAL RESEARCH, priority 2015, dated 2019).

Test system: Plasmodium cynomolgi B
Conditions: intramuscularly, 7 daily doses of 15 mg/kg; observation period of 120 d; rhesus monkeys

Row | SMILES | anti-relapse (curative) activity
1 | CCCCCCCCCCOc1cc2c(OC(C)=O)c(C(=O)OC)cnc2cc1OC(C)C [WR 194905, 4-acetoxy-6-decyloxy-7-isopropoxy-3-methoxycarbonylquinoline] | curative
2 | CCCCc1cc2c(O)c(C(=O)OC)cnc2cc1OCCOc1ccccc1 [WR 197236, 6-butyl-4-hydroxy-3-methoxycarbonyl-7-β-phenoxyethoxyquinoline] | curative
